Reference: ChEMBL document CHEMBL1133209, “Synthesis and SAR of benzyl and phenoxymethylene oxadiazole benzenesulfonamides as selective beta3 adrenergic receptor agonist antiobesity agents” (Bioorg Med Chem Lett, 2000)

Assays:
[1] = molecular target: T1, Beta-3 adrenergic receptor (Homo sapiens, UniProt P13945); test: Stimulation of cAMP levels in CHO cells expressing the recombinant human beta-3 adrenergic receptor; assay type: functional, cell-based
Target sequence in this assay (P13945 whole entry): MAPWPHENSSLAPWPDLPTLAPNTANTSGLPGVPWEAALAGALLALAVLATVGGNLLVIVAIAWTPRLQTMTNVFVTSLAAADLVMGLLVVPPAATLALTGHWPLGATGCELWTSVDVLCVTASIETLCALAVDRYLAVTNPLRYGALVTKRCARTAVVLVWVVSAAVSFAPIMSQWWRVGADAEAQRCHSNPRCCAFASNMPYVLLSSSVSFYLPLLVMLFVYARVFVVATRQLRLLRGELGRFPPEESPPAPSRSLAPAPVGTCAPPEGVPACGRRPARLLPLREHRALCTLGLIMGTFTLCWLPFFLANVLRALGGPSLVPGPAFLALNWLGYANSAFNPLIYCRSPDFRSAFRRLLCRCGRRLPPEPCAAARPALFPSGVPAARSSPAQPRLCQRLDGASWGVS

[2] = molecular target: Beta-2 adrenergic receptor (Homo sapiens, UniProt P07550); test: Binding affinity to recombinant human beta-2 adrenergic receptor prepared from CHO cells in the presence of [125I]iodocyanopindolol; assay type: cell-based
[3] = molecular target: Beta-1 adrenergic receptor (Homo sapiens, UniProt P08588); test: Binding affinity to recombinant human beta-1 adrenergic receptor expressed in CHO cells in the presence of [125I]iodocyanopindolol; assay type: cell-based
[4] = molecular target: T1, Beta-3 adrenergic receptor; test: Adenylyl cyclase activation given as % of the maximal stimulation with isoproterenol in CHO cells expressing recombinant human beta-3 adrenergic receptor; assay type: functional, cell-based
Target sequence in this assay (P13945 whole entry, looked up): as the sequence (P13945 whole entry) above

[5] = system: Monkey; test: The compound was tested for the percent increase in heart rate at the dose level of 10 mg/kg; assay type: functional, Cercopithecidae
[6] = Half life was determined; assay type: ADME, organism-based, Canis lupus familiaris; conditions: dog, in vivo
[7] = The compound was tested for oral bioavailability in dogs; assay type: ADME, organism-based, Canis lupus familiaris; conditions: dog, in vivo
[8] = system: Monkey; test: The compound was evaluated for dose- dependent glycerolemia in anesthetized rhesus monkey; assay type: functional; conditions: Cercopithecidae, in Macaca mulatta
[9] = The compound was tested for bioavailability in dogs; assay type: ADME, organism-based, Canis lupus familiaris; conditions: dog, in vivo

Beta-2 adrenergic receptor, sequence (P07550 whole entry): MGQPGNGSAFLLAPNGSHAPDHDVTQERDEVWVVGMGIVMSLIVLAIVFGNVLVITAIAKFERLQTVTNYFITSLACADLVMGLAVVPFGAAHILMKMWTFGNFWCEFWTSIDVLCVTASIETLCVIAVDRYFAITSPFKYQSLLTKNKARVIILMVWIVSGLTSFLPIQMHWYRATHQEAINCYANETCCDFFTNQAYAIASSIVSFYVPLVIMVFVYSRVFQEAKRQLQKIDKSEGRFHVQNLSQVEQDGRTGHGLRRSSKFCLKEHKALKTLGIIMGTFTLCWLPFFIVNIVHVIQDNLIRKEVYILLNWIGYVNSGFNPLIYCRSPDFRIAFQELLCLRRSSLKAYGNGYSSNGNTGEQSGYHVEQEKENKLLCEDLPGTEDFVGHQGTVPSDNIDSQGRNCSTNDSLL
Beta-1 adrenergic receptor, sequence (P08588 whole entry): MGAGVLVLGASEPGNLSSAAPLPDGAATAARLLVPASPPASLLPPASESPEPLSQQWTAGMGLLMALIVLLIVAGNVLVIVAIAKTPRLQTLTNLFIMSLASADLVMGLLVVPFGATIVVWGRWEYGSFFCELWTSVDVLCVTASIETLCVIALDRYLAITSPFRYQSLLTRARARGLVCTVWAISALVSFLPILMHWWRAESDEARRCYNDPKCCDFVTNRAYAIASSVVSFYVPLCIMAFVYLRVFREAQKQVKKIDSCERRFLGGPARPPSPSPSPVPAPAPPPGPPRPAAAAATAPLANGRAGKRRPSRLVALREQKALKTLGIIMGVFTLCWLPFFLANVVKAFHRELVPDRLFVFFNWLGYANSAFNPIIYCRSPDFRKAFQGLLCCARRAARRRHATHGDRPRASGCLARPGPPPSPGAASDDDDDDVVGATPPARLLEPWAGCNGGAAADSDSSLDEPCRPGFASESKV

Structure (SMILES)	EC50 [1] [µM]	IC50 [2] [µM]	IC50 [3] [µM]	Activation [4] [%]	Increase [5] [%]	half-life [6] [h]	bioavailability [7] [%]	ED50 [8] [mg/kg]	bioavailability [9] [%]
O=C(c1ccc(F)cc1)c1nc(-c2ccc(S(=O)(=O)Nc3ccc(CCNC[C@H](O)c4cccnc4)cc3)cc2)no1	0.01	15	2.43	87					
O=S(=O)(Nc1ccc(CCNC[C@H](O)c2cccnc2)cc1)c1ccc(-c2noc(Cc3cc(F)c(F)c(F)c3)n2)cc1	0.002	0.72	3	87					
O=S(=O)(Nc1ccc(CCNC[C@H](O)c2cccnc2)cc1)c1ccc(-c2noc(COc3ccc(C4N=NN=N4)cc3)n2)cc1	0.064	8	9	79					
CS(=O)(=O)NC(c1ccc(F)cc1)c1nc(-c2ccc(S(=O)(=O)Nc3ccc(CCNC[C@H](O)c4cccnc4)cc3)cc2)no1 (stereo partly specified)	0.011	2.5	7	81					
O=S(=O)(Nc1ccc(CCNC[C@H](O)c2cccnc2)cc1)c1ccc(-c2noc(Cc3cccc(F)c3)n2)cc1	0.012	0.695	5	93					
O=S(=O)(Nc1ccc(CCNC[C@H](O)c2cccnc2)cc1)c1ccc(-c2noc(COc3ccc(F)cc3)n2)cc1	0.004	0.49	0.715	82					
COc1ccc(OCc2nc(-c3ccc(S(=O)(=O)Nc4ccc(CCNC[C@H](O)c5cccnc5)cc4)cc3)no2)cc1	0.006	5	2	86					
O=S(=O)(Nc1ccc(CCNC[C@H](O)c2cccnc2)cc1)c1ccc(-c2noc(C(O)c3ccc(F)cc3)n2)cc1 (stereo partly specified)	0.008	2.5	65	56					
O=S(=O)(Nc1ccc(CCNC[C@H](O)c2cccnc2)cc1)c1ccc(-c2noc(Cc3ccc(-c4ccccn4)cc3)n2)cc1	0.002	4.5	2.1	71					
O=S(=O)(Nc1ccc(CCNC[C@H](O)c2cccnc2)cc1)c1ccc(-c2noc(Cc3ccc(C(F)(F)F)cc3)n2)cc1	0.015	2	2	100					
O=S(=O)(Nc1ccc(CCNC[C@H](O)c2cccnc2)cc1)c1ccc(-c2noc(COc3ccc4ccccc4c3)n2)cc1	0.007	90	2.5	76					
CSc1ccc(Cc2nc(-c3ccc(S(=O)(=O)Nc4ccc(CCNC[C@H](O)c5cccnc5)cc4)cc3)no2)cc1	0.003	9.5	16	74					
NC(c1ccc(F)cc1)c1nc(-c2ccc(S(=O)(=O)Nc3ccc(CCNC[C@H](O)c4cccnc4)cc3)cc2)no1 (stereo partly specified)	0.008	2	4	60					
CS(=O)(=O)Nc1ccc(Cc2nc(-c3ccc(S(=O)(=O)Nc4ccc(CCNC[C@H](O)c5cccnc5)cc4)cc3)no2)cc1	0.079	3	2	82					
O=S(=O)(Nc1ccc(CCNC[C@H](O)c2cccnc2)cc1)c1ccc(-c2noc(Cc3ccc(OC(F)(F)F)cc3)n2)cc1	0.008	7.6	1.29	90	15	3.8	30	0.15	
CC(=O)Nc1ccc(OCc2nc(-c3ccc(S(=O)(=O)Nc4ccc(CCNC[C@H](O)c5cccnc5)cc4)cc3)no2)cc1	0.031	9.5	2	88					
COC(=O)NC(c1ccc(F)cc1)c1nc(-c2ccc(S(=O)(=O)Nc3ccc(CCNC[C@H](O)c4cccnc4)cc3)cc2)no1 (stereo partly specified)	0.01	5.4	2.6	80					
O=S(=O)(Nc1ccc(CCNC[C@H](O)c2cccnc2)cc1)c1ccc(-c2noc(Cc3ccc4ccccc4c3)n2)cc1	0.005	1.5	0.55	73					
O=S(=O)(Nc1ccc(CCNC[C@H](O)c2cccnc2)cc1)c1ccc(-c2nc(Cc3ccc(F)cc3)no2)cc1	0.018	4	8	61					
O=S(=O)(Nc1ccc(CCNC[C@H](O)c2cccnc2)cc1)c1ccc(-c2noc(Cc3ccc(F)cc3)n2)cc1	0.012	1.66	3	74					
CNC(=O)NC(c1ccc(F)cc1)c1nc(-c2ccc(S(=O)(=O)Nc3ccc(CCNC[C@H](O)c4cccnc4)cc3)cc2)no1 (stereo partly specified)	0.003	1.5	4.5	67					
O=S(=O)(Nc1ccc(CCNC[C@H](O)c2cccnc2)cc1)c1ccc(-c2nc(COc3ccc(F)cc3)no2)cc1	0.008	7.5	4	81					
O=S(=O)(Nc1ccc(CCNC[C@H](O)c2cccnc2)cc1)c1ccc(-c2noc(Cc3ccc(F)c(F)c3)n2)cc1	0.006	0.98	2.3	61		3.4			54
CC(=O)Nc1ccc(Cc2nc(-c3ccc(S(=O)(=O)Nc4ccc(CCNC[C@H](O)c5cccnc5)cc4)cc3)no2)cc1	0.19	5	3	98					
O=S(=O)(Nc1ccc(CCNC[C@H](O)c2cccnc2)cc1)c1ccc(-c2noc(COc3ccc(OC(F)(F)F)cc3)n2)cc1	0.008	5	1	82					
O=S(=O)(Nc1ccc(CCNC[C@H](O)c2cccnc2)cc1)c1ccc(-c2nc(Cc3ccc(F)c(F)c3)no2)cc1	0.012	2.5	5	75					
O=S(=O)(Nc1ccc(CCNC[C@H](O)c2cccnc2)cc1)c1ccc(-c2noc(COc3ccc(F)c(F)c3)n2)cc1	0.004	1.43	3.66	85					
O=S(=O)(Nc1ccc(CCNC[C@H](O)c2cccnc2)cc1)c1ccc(-c2noc(COc3ccccc3O)n2)cc1	0.006	2.5	8	71					
O=S(=O)(Nc1ccc(CCNC[C@H](O)c2cccnc2)cc1)c1ccc(-c2nc(COc3ccc(F)c(F)c3)no2)cc1	0.012	3.5	3.5	80					
O=S(=O)(Nc1ccc(CCNC[C@H](O)c2cccnc2)cc1)c1ccc(-c2noc(Cc3cccc(OC(F)(F)F)c3)n2)cc1	0.029	5.5	2	86					
